Measured values published in patent publication US20240158446A1, “CYCLIC COMPOUND HAVING SELECTIVE INHIBITORY ACTION ON KRAS OVER HRAS AND NRAS” (CHUGAI SEIYAKU KABUSHIKI KAISHA, priority 2021, published 2024).

Legend:
[1] = target: GDP-bound KRAS wild-type protein (Homo sapiens, UniProt P01116); test: Binding to KRAS by surface plasmon resonance (SPR), Single Cycle Kinetics; settings: SPR, Single Cycle Kinetics, 1:1 binding model; GDP-bound KRAS wild-type protein; read-out: KRAS KD
[2] = target: GDP-bound NRAS wild-type protein (Homo sapiens, UniProt P01111); test: Binding to NRAS by surface plasmon resonance (SPR), Single Cycle Kinetics; settings: SPR; GDP-bound NRAS wild-type protein vs GDP-bound KRAS wild-type protein; KD ratio class
[3] = target: GDP-bound HRAS wild-type protein (Homo sapiens, UniProt P01112); test: Binding to HRAS by surface plasmon resonance (SPR), Single Cycle Kinetics; settings: SPR; GDP-bound HRAS wild-type protein vs GDP-bound KRAS wild-type protein; KD ratio class
[4] = system: human lung cancer strain NCI-H441;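 further: cell proliferation inhibition after four days measured by CellTiter-Glo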

Chain of GDP-bound KRAS wild-type protein (P01116 whole entry): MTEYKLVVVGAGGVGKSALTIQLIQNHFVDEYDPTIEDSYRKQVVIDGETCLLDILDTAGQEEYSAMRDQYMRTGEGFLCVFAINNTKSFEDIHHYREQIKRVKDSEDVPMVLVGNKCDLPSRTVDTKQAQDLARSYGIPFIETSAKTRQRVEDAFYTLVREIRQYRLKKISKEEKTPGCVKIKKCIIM
Chain of GDP-bound NRAS wild-type protein (P01111 whole entry): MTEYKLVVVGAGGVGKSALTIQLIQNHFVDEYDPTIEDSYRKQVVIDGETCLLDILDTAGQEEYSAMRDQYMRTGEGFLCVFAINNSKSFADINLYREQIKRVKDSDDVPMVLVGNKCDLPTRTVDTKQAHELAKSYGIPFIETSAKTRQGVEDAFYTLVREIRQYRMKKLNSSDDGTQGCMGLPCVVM
Chain of GDP-bound HRAS wild-type protein (P01112 whole entry): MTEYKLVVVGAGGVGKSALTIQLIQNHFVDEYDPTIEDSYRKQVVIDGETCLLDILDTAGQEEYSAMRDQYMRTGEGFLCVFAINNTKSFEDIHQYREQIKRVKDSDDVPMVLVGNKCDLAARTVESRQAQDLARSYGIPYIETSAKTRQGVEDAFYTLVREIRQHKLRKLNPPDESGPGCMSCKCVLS

Row | SMILES | Kd [1] [nM] | NRAS/KRAS (ratio of KD value for NRAS to KD value for KRAS) [2] | HRAS/KRAS (ratio of KD value for HRAS to KD value for KRAS) [3] | IC50 [4] [nM]
1 | CCO[C@@H]1C[C@H]2C(=O)NC3(CCCC3)C(=O)N(C)[C@@H](C3CCCC3)C(=O)N(C)[C@H](C(=O)N(C)C)CC(=O)N(C)[C@@H](CC3CC3)C(=O)N[C@@H]([C@@H](C)CC)C(=O)N(C)CC(=O)N(C)[C@H]3C[C@@H](C)[C@@H](C)CN(C3=O)[C@@H](Cc3ccc(C(F)(F)F)cc3)C(=O)N(C)CC(=O)N[C@@H](CCc3cc(F)c(C(F)(F)F)c(F)c3)C(=O)N2C1 [PP1356] | 0.047 | B (a compound having 3 or more and less than 10 is denoted as B) | B (a compound having 3 or more and less than 10 is denoted as B) | 3.3
2 | CCO[C@@H]1C[C@H]2C(=O)NC3(CCC3)C(=O)N(C)[C@@H](C3CCCC3)C(=O)N(C)[C@H](C(=O)N3CCOCC3)CC(=O)N(C)[C@@H](CC)C(=O)N[C@@H]([C@@H](C)CC)C(=O)N3CC[C@H]3C(=O)N(C)[C@H]3C[C@@H](C)[C@@H](C)CN(C3=O)[C@@H](Cc3ccc(C(F)(F)F)cc3)C(=O)N(C)CC(=O)N[C@@H](CCc3ccc(C(F)(F)F)c(Cl)c3)C(=O)N2C1 [PP1357] | 0.13 | A (a compound having 10 or more and less than 20 is denoted as A) | B (a compound having 3 or more and less than 10 is denoted as B) | 5.4
3 | CCO[C@@H]1C[C@H]2C(=O)NC3(CCCC3)C(=O)N(C)[C@@H](C3CCCC3)C(=O)N(C)[C@H](C(=O)N(C)C)CC(=O)N(C)[C@@H](CC)C(=O)N[C@@H]([C@@H](C)CC)C(=O)N(C)CC(=O)N(C)[C@H]3C[C@@H](C)[C@@H](C)CN(C3=O)[C@@H](Cc3ccc(C(F)(F)F)cc3)C(=O)N(C)CC(=O)N[C@@H](CCc3ccc(C(F)(F)F)c(Cl)c3)C(=O)N2C1 [PP1358] | 0.03 | A (a compound having 10 or more and less than 20 is denoted as A) | B (a compound having 3 or more and less than 10 is denoted as B) | 4.1
4 | CCO[C@@H]1C[C@H]2C(=O)NC3(CCCC3)C(=O)N(C)[C@@H](C3CCCC3)C(=O)N(C)[C@H](C(=O)N3CCOCC3)CC(=O)N(C)[C@@H](CC)C(=O)N[C@@H]([C@@H](C)CC)C(=O)N(C)CC(=O)N(C)[C@H]3C[C@@H](C)[C@@H](C)CN(C3=O)[C@@H](Cc3ccc(C(F)(F)F)cc3)C(=O)N(C)CC(=O)N[C@@H](CCc3ccc(C(F)(F)F)c(Cl)c3)C(=O)N2C1 [PP1359] | 0.068 | A (a compound having 10 or more and less than 20 is denoted as A) | B (a compound having 3 or more and less than 10 is denoted as B) | 3.2
5 | CCO[C@@H]1C[C@H]2C(=O)NC3(CCC3)C(=O)N(C)[C@@H](C3CCCC3)C(=O)N(C)[C@H](C(=O)N3CCOCC3)CC(=O)N(C)[C@@H](CC)C(=O)N[C@@H]([C@@H](C)CC)C(=O)N(C)CC(=O)N(C)[C@H]3C[C@@H](C)[C@@H](C)CN(C3=O)[C@@H](Cc3ccc(C(F)(F)F)cc3)C(=O)N(C)CC(=O)N[C@@H](CCc3ccc(C(F)(F)F)c(Cl)c3)C(=O)N2C1 [PP1360] | 0.055 | A (a compound having 10 or more and less than 20 is denoted as A) | B (a compound having 3 or more and less than 10 is denoted as B) | 4.9
6 | CCO[C@@H]1C[C@H]2C(=O)NC3(CCC3)C(=O)N(C)[C@@H](C3CCCC3)C(=O)N(C)[C@H](C(=O)N3CCOCC3)CC(=O)N(C)[C@@H](CC(C)C)C(=O)N[C@@H]([C@@H](C)CC)C(=O)N3CC[C@H]3C(=O)N(C)[C@H]3C[C@@H](C)[C@@H](C)CN(C3=O)[C@@H](Cc3ccc(C(F)(F)F)cc3)C(=O)N(C)CC(=O)N[C@@H](CCc3ccc(C(F)(F)F)c(Cl)c3)C(=O)N2C1 [PP1361] | 0.15 | A (a compound having 10 or more and less than 20 is denoted as A) | B (a compound having 3 or more and less than 10 is denoted as B) | 6.2
7 | CCO[C@@H]1C[C@H]2C(=O)NC3(CCCC3)C(=O)N(C)[C@@H](C3CCCC3)C(=O)N(C)[C@H](C(=O)N(C)C)CC(=O)N(C)[C@@H](CC3CC3)C(=O)N[C@@H]([C@@H](C)CC)C(=O)N(C)CC(=O)N(C)[C@H]3C[C@@H](C)[C@@H](C)CN(C3=O)[C@@H](Cc3ccc(C(F)(F)F)cc3)C(=O)N(C)CC(=O)N[C@@H](CCc3ccc(C(F)(F)F)c(Cl)c3)C(=O)N2C1 [PP1362] | 0.037 | A (a compound having 10 or more and less than 20 is denoted as A) | B (a compound having 3 or more and less than 10 is denoted as B) | 3.7
8 | CC[C@H](C)[C@@H]1NC(=O)[C@H](CC)N(C)C(=O)C[C@@H](C(=O)N2CCOCC2)N(C)C(=O)[C@H](C2CCCC2)N(C)C(=O)C2(CCC2)NC(=O)[C@@H]2CCCN2C(=O)[C@H](CCc2cc(F)c(C(F)(F)F)c(F)c2)NC(=O)CN(C)C(=O)[C@H](Cc2ccc(C(F)(F)F)cc2)N2C[C@H](C)[C@H](C)C[C@@H](C2=O)N(C)C(=O)[C@@H]2CCN2C1=O [PP1363] | 0.32 | A (a compound having 10 or more and less than 20 is denoted as A) | B (a compound having 3 or more and less than 10 is denoted as B) | 34.7
9 | CC[C@H](C)[C@@H]1NC(=O)[C@H](CC)N(C)C(=O)C[C@@H](C(=O)N(C)C)N(C)C(=O)[C@H](C2CCCC2)N(C)C(=O)C2(CCCC2)NC(=O)[C@@H]2CCCN2C(=O)[C@H](CCc2cc(F)c(C(F)(F)F)c(F)c2)NC(=O)CN(C)C(=O)[C@H](Cc2ccc(C(F)(F)F)cc2)N2C[C@H](C)[C@H](C)C[C@@H](C2=O)N(C)C(=O)CN(C)C1=O [PP1364] | 0.05 | A (a compound having 10 or more and less than 20 is denoted as A) | B (a compound having 3 or more and less than 10 is denoted as B) | 7.1
10 | CC[C@H](C)[C@@H]1NC(=O)[C@H](CC)N(C)C(=O)C[C@@H](C(=O)N2CCOCC2)N(C)C(=O)[C@H](C2CCCC2)N(C)C(=O)C2(CCCC2)NC(=O)[C@@H]2CCCN2C(=O)[C@H](CCc2cc(F)c(C(F)(F)F)c(F)c2)NC(=O)CN(C)C(=O)[C@H](Cc2ccc(C(F)(F)F)cc2)N2C[C@H](C)[C@H](C)C[C@@H](C2=O)N(C)C(=O)CN(C)C1=O [PP1365] | 0.13 | A (a compound having 10 or more and less than 20 is denoted as A) | B (a compound having 3 or more and less than 10 is denoted as B) | 4.2
11 | CC[C@H](C)[C@@H]1NC(=O)[C@H](CC)N(C)C(=O)C[C@@H](C(=O)N2CCOCC2)N(C)C(=O)[C@H](C2CCCC2)N(C)C(=O)C2(CCC2)NC(=O)[C@@H]2CCCN2C(=O)[C@H](CCc2cc(F)c(C(F)(F)F)c(F)c2)NC(=O)CN(C)C(=O)[C@H](Cc2ccc(C(F)(F)F)cc2)N2C[C@H](C)[C@H](C)C[C@@H](C2=O)N(C)C(=O)CN(C)C1=O [PP1366] | 0.11 | A (a compound having 10 or more and less than 20 is denoted as A) | B (a compound having 3 or more and less than 10 is denoted as B) | 14
12 | CC[C@H](C)[C@@H]1NC(=O)[C@H](CC(C)C)N(C)C(=O)C[C@@H](C(=O)N2CCOCC2)N(C)C(=O)[C@H](C2CCCC2)N(C)C(=O)C2(CCC2)NC(=O)[C@@H]2CCCN2C(=O)[C@H](CCc2cc(F)c(C(F)(F)F)c(F)c2)NC(=O)CN(C)C(=O)[C@H](Cc2ccc(C(F)(F)F)cc2)N2C[C@H](C)[C@H](C)C[C@@H](C2=O)N(C)C(=O)[C@@H]2CCN2C1=O [PP1367] | 0.34 | A (a compound having 10 or more and less than 20 is denoted as A) | B (a compound having 3 or more and less than 10 is denoted as B) | 29.3
13 | CC[C@H](C)[C@@H]1NC(=O)[C@H](CC2CC2)N(C)C(=O)C[C@@H](C(=O)N(C)C)N(C)C(=O)[C@H](C2CCCC2)N(C)C(=O)C2(CCCC2)NC(=O)[C@@H]2CCCN2C(=O)[C@H](CCc2cc(F)c(C(F)(F)F)c(F)c2)NC(=O)CN(C)C(=O)[C@H](Cc2ccc(C(F)(F)F)cc2)N2C[C@H](C)[C@H](C)C[C@@H](C2=O)N(C)C(=O)CN(C)C1=O [PP1368] | 0.061 | A (a compound having 10 or more and less than 20 is denoted as A) | B (a compound having 3 or more and less than 10 is denoted as B) | 2.9
